Results taken from ChEMBL document CHEMBL4219271, “Synthesis and anti-proliferative activity of allogibberic acid derivatives containing 1,2,3-triazole pharmacophore” (Bioorg Med Chem Lett, 2018).

What was measured:
SW480 [1] = experiment: Cytotoxicity against human SW480 cells assessed as decrease in cell viability after 4 days by MTT assay; assay type: functional, cell-based; details: SW480, 96 h
SMMC-7721 [2] = experiment: Induction of apoptosis in human SMMC7721 cells assessed as viable cells at 1.7 uM after 48 hrs by Annexin V-FITC/PI double staining based flow cytometry (reference value: 100%); assay type: functional; details: SMMC-7721, 48 h, read-out: Activity
SMMC-7721 [3] = experiment: Induction of apoptosis in human SMMC7721 cells assessed as viable cells at 0.425 uM after 48 hrs by Annexin V-FITC/PI double staining based flow cytometry (reference value: 100%); assay type: functional; details: SMMC-7721, 48 h, read-out: Activity
SW480 [4] = experiment: Potency index, ratio of cisplatin IC50 to compound IC50 for human SW480 cells; assay type: functional
SMMC-7721 [5] = experiment: Induction of apoptosis in human SMMC7721 cells assessed as necrotic cells at 1.7 uM after 48 hrs by Annexin V-FITC/PI double staining based flow cytometry (reference value: 0%); assay type: functional
SMMC-7721 [6] = experiment: Cell cycle arrest in human SMMC7721 cells assessed as accumulation at S phase at 1.7 uM after 24 hrs by propidium iodide staining based flow cytometry (reference value: 13.71 +/- 0.62%); assay type: functional
SMMC-7721 [7] = experiment: Cell cycle arrest in human SMMC7721 cells assessed as accumulation at G2/M phase at 0.85 uM after 24 hrs by propidium iodide staining based flow cytometry (reference value: 5.72 +/- 0.59%); assay type: functional
SMMC-7721 [8] = experiment: Cell cycle arrest in human SMMC7721 cells assessed as accumulation at G0/G1 phase at 0.425 uM after 24 hrs by propidium iodide staining based flow cytometry (reference value: 77.85 +/- 1.90%); assay type: functional
SMMC-7721 [9] = experiment: Induction of apoptosis in human SMMC7721 cells assessed as late apoptotic cells at 0.85 uM after 48 hrs by Annexin V-FITC/PI double staining based flow cytometry (reference value: 0%); assay type: functional
SMMC-7721 [10] = experiment: Cell cycle arrest in human SMMC7721 cells assessed as accumulation at G0/G1 phase at 1.7 uM after 24 hrs by propidium iodide staining based flow cytometry (reference value: 77.85 +/- 1.90%); assay type: functional
SMMC-7721 [11] = experiment: Induction of apoptosis in human SMMC7721 cells assessed as early apoptotic cells at 1.7 uM after 48 hrs by Annexin V-FITC/PI double staining based flow cytometry (reference value: 0.035%); assay type: functional
SMMC-7721 [12] = experiment: Cell cycle arrest in human SMMC7721 cells assessed as accumulation at S phase at 0.425 uM after 24 hrs by propidium iodide staining based flow cytometry (reference value: 13.71 +/- 0.62%); assay type: functional
SMMC-7721 [13] = experiment: Induction of apoptosis in human SMMC7721 cells assessed as early apoptotic cells at 0.85 uM after 48 hrs by Annexin V-FITC/PI double staining based flow cytometry (reference value: 0.035%); assay type: functional
SMMC-7721 [14] = experiment: Induction of apoptosis in human SMMC7721 cells assessed as necrotic cells at 0.425 uM after 48 hrs by Annexin V-FITC/PI double staining based flow cytometry (reference value: 0%); assay type: functional
SMMC-7721 [15] = experiment: Induction of apoptosis in human SMMC7721 cells assessed as late apoptotic cells at 3.4 uM after 48 hrs by Annexin V-FITC/PI double staining based flow cytometry (reference value: 0%); assay type: functional
SMMC-7721 [16] = experiment: Cell cycle arrest in human SMMC7721 cells assessed as accumulation at G2/M phase at 0.425 uM after 24 hrs by propidium iodide staining based flow cytometry (reference value: 5.72 +/- 0.59%); assay type: functional
SMMC-7721 [17] = experiment: Induction of apoptosis in human SMMC7721 cells assessed as late apoptotic cells at 1.7 uM after 48 hrs by Annexin V-FITC/PI double staining based flow cytometry (reference value: 0%); assay type: functional
SMMC-7721 [18] = experiment: Induction of apoptosis in human SMMC7721 cells assessed as necrotic cells at 0.85 uM after 48 hrs by Annexin V-FITC/PI double staining based flow cytometry (reference value: 0%); assay type: functional
MCF7 = experiment: Cytotoxicity against human MCF7 cells assessed as decrease in cell viability after 4 days by MTT assay; assay type: functional, cell-based; details: MCF7, 96 h
SMMC-7721 [19] = experiment: Induction of apoptosis in human SMMC7721 cells assessed as necrotic cells at 3.4 uM after 48 hrs by Annexin V-FITC/PI double staining based flow cytometry (reference value: 0%); assay type: functional
SMMC-7721 [20] = experiment: Cell cycle arrest in human SMMC7721 cells assessed as accumulation at S phase after 24 hrs by propidium iodide staining based flow cytometry; assay type: functional
SMMC-7721 [21] = experiment: Cell cycle arrest in human SMMC7721 cells assessed as accumulation at S phase at 3.4 uM after 24 hrs by propidium iodide staining based flow cytometry (reference value: 13.71 +/- 0.62%); assay type: functional
SMMC-7721 [22] = experiment: Cell cycle arrest in human SMMC7721 cells assessed as accumulation at G0/G1 phase at 0.85 uM after 24 hrs by propidium iodide staining based flow cytometry (reference value: 77.85 +/- 1.90%); assay type: functional
SMMC-7721 [23] = experiment: Induction of apoptosis in human SMMC7721 cells assessed as viable cells at 3.4 uM after 48 hrs by Annexin V-FITC/PI double staining based flow cytometry (reference value: 100%); assay type: functional; details: SMMC-7721, 48 h, read-out: Activity
HL-60 = experiment: Cytotoxicity against human HL60 cells assessed as decrease in cell viability after 4 days by MTT assay; assay type: functional, cell-based; details: HL-60, 96 h
SMMC-7721 [24] = experiment: Induction of apoptosis in human SMMC7721 cells assessed as early apoptotic cells at 3.4 uM after 48 hrs by Annexin V-FITC/PI double staining based flow cytometry (reference value: 0.035%); assay type: functional
SMMC-7721 [25] = experiment: Cell cycle arrest in human SMMC7721 cells assessed as accumulation at G2/M phase at 1.7 uM after 24 hrs by propidium iodide staining based flow cytometry (reference value: 5.72 +/- 0.59%); assay type: functional
SMMC-7721 [26] = experiment: Cytotoxicity against human SMMC7721 cells assessed as decrease in cell viability after 4 days by MTT assay; assay type: functional, cell-based; details: SMMC-7721, 96 h
SMMC-7721 [27] = experiment: Induction of apoptosis in human SMMC7721 cells assessed as late apoptotic cells at 0.425 uM after 48 hrs by Annexin V-FITC/PI double staining based flow cytometry (reference value: 0%); assay type: functional
SMMC-7721 [28] = experiment: Induction of apoptosis in human SMMC7721 cells assessed as early apoptotic cells at 0.425 uM after 48 hrs by Annexin V-FITC/PI double staining based flow cytometry (reference value: 0.035%); assay type: functional
SMMC-7721 [29] = experiment: Cell cycle arrest in human SMMC7721 cells assessed as accumulation at S phase at 0.85 uM after 24 hrs by propidium iodide staining based flow cytometry (reference value: 13.71 +/- 0.62%); assay type: functional
SMMC-7721 [30] = experiment: Cell cycle arrest in human SMMC7721 cells assessed as accumulation at G0/G1 phase at 3.4 uM after 24 hrs by propidium iodide staining based flow cytometry (reference value: 77.85 +/- 1.90%); assay type: functional
A549 = experiment: Cytotoxicity against human A549 cells assessed as decrease in cell viability after 4 days by MTT assay; assay type: functional, cell-based; details: A549, 96 h
SMMC-7721 [31] = experiment: Cell cycle arrest in human SMMC7721 cells assessed as accumulation at G2/M phase at 3.4 uM after 24 hrs by propidium iodide staining based flow cytometry (reference value: 5.72 +/- 0.59%); assay type: functional
SMMC-7721 [32] = experiment: Induction of apoptosis in human SMMC7721 cells assessed as viable cells at 0.85 uM after 48 hrs by Annexin V-FITC/PI double staining based flow cytometry (reference value: 100%); assay type: functional; details: SMMC-7721, 48 h, read-out: Activity

In the case of `C=C1C(=O)[C@]23C[C@@]1(O)CC[C@H]2c1ccc(O)c(C)c1[C@@H]3Cn1cc(-c2ccc(F)cc2)nn1`, the IC50 (SW480 [1]) is reported as 250 nM, the viability at 1.7 µM (SMMC-7721 [2]) is reported as 43.4% and the viability at 0.425 µM (SMMC-7721 [3]) is reported as 80.9%. The “Ratio IC50” value (SW480 [4]) was 33, the Activity (SMMC-7721 [5]) was 1.97% and the Activity (SMMC-7721 [6]) was 19.35%. It also gave an Activity (SMMC-7721 [7]) of 7.7%, an Activity (SMMC-7721 [8]) of 78.27% and an Activity (SMMC-7721 [9]) of 10.7%. For the same compound, the Activity (SMMC-7721 [10]) was 70.87%, the Activity (SMMC-7721 [11]) was 31.9% and the Activity (SMMC-7721 [12]) was 13.92%. For the same compound, the Activity (SMMC-7721 [13]) was 7.83%, the Activity (SMMC-7721 [14]) was 3.14% and the Activity (SMMC-7721 [15]) was 7.41%. For the same compound, the Activity (SMMC-7721 [16]) was 6.24%, the Activity (SMMC-7721 [17]) was 22.7% and the Activity (SMMC-7721 [18]) was 1.72%. For the same compound, the IC50 (MCF7) was 1700 nM, the Activity (SMMC-7721 [19]) was 0.053% and the Activity (SMMC-7721 [20]) was “Dose-dependent effect”. The Activity (SMMC-7721 [21]) was 22.73%, the Activity (SMMC-7721 [22]) was 74.23% and the viability at 3.4 µM (SMMC-7721 [23]) was 2.17%. It also gave an IC50 (HL-60) of 660 nM, an Activity (SMMC-7721 [24]) of 90.4% and an Activity (SMMC-7721 [25]) of 6.05%. It also gave an IC50 (SMMC-7721 [26]) of 850 nM, an Activity (SMMC-7721 [27]) of 12.7% and an Activity (SMMC-7721 [28]) of 3.31%. The Activity (SMMC-7721 [29]) was 17.38%, the Activity (SMMC-7721 [30]) was 71.54% and the IC50 (A549) was 940 nM. It also gave an Activity (SMMC-7721 [31]) of 0.89% and a viability at 0.85 µM (SMMC-7721 [32]) of 79.8%.
